From patent US20210101874A1, “MICROBIOCIDAL OXADIAZOLE DERIVATIVES” (SYNGENTA PARTICIPATIONS AG, priority 2017, published 2021)

Columns and labels:
[1] = tested on: Puccinia recondita f. sp. Tritici; test: Puccinia recondita f. sp. tritici / wheat / leaf disc curative (brown rust); type: in vivo; conditions: foliar, 200 ppm in the applied formulation, wheat leaf segments cv. Kanzler, applied 1 day after inoculation, compared to untreated, assessed 6 to 8 days after application, read-out: disease control
In short: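 Curative leaf-segment test, cv. Kanzler: spore inoculation, dark storage 19° C/75% RH, compound spray 1 day post-inoculation. Then 12 h light/12 h dark, 19° C, 75% RH. Read-out: % disease control vs untreated check, 6–8 d after application.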

Phakopsora pachyrhizi = Phakopsora pachyrhizi / soybean / leaf disc preventative (Asian soybean rust); type: in vivo; conditions: foliar, 200 ppm in the applied formulation, soybean leaf disks, inoculated one day after application, compared to untreated, assessed 12 to 14 days after application, read-out: disease control
Experimental: Leaf disks or leaf segments of various plant species are cut from plants grown in a greenhouse. The cut leaf disks or segments are placed in multiwell plates (24-well format) onto water agar. The leaf disks are sprayed with a test solution before (preventative) or after (curative) inoculation. Compounds to be tested are prepared as DMSO solutions (max. 10 mg/ml) which are diluted to the appropriate concentration with 0.025% Tween20 just before spraying. The inoculated leaf disks or segments are incubated under defined conditions (temperature, relative humidity, light, etc.) according to the respective test system. A single evaluation of disease level is carried out 3 to 14 days after inoculation, depending on the pathosystem. Percent disease control relative to the untreated check leaf disks or segments is then calculated.
Soybean leaf disks are placed on water agar in multiwell plates (24-well format) and sprayed with the formulated test compound diluted in water. One day after application leaf discs are inoculated by spraying a spore suspension on the lower leaf surface. After an incubation period in a climate cabinet of 24-36 hours in darkness at 20° C. and 75% rh leaf disc are kept at 20° C. with 12 h light/day and 75% rh. The activity of a compound is assessed as percent disease control compared to untreated when an appropriate level of disease damage appears in untreated check leaf disks (12 to 14 days after application).
The following compounds at 200 ppm in the applied formulation give at least 80% disease control in this test when compared to untreated control leaf disks under the same conditions, which show extensive disease development.

[2] = tested on: Glomerella lagenarium (Colletotrichum lagenarium); test: Glomerella lagenarium (Colletotrichum lagenarium) liquid culture / cucumber / preventative (anthracnose); type: cell-based; conditions: Colletotrichum orbiculare; 20 ppm in the applied formulation; conidia in PDB nutrient broth, 24° C.; 3 to 4 days after application; compared to untreated; read-out: disease control (inhibition of growth measured photometrically)
In short: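 Test compound, diluted from DMSO, was mixed in microtiter wells with fungal conidia taken from cryogenic storage and suspended in PDB nutrient broth. After 3 to 4 days at 24 °C, photometric growth measurement gave antifungal activity as a percentage of the untreated control.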

[3] = tested on: Puccinia recondita f. sp. Tritici; test: Puccinia recondita f. sp. tritici / wheat / leaf disc preventative (brown rust); type: in vivo; conditions: foliar, 200 ppm in the applied formulation, wheat leaf segments cv. Kanzler, inoculated 1 day after application, compared to untreated, assessed 7 to 9 days after application, read-out: disease control
In short: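 Wheat cv. Kanzler leaf segments on agar sprayed with diluted compound, inoculated with brown rust spores 1 day later. Kept at 19° C., 75% rh, 12 h light/dark; percent disease control versus untreated segments scored 7 to 9 days after application, compounds tested at 200 ppm.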

melting point [°C] | Compound | pest or weed control at 200 ppm [1] [%] | pest or weed control at 200 ppm (Phakopsora pachyrhizi) [%] | inhibition at 20 ppm [2] [%] | pest or weed control at 200 ppm [3] [%]
86 to 88 | CCS(=O)(=O)N(Cc1ccc(-c2noc(C(F)(F)F)n2)cc1)C1CC1 [Compound 1.1, N-cyclopropyl-N-[[4-[5-(trifluoromethyl)-1,2,4-oxadiazol-3-yl]phenyl]methyl] ethanesulfonamide] | ≥ 80 | ≥ 80 | ≥ 80 | ≥ 80
90 to 92 | O=S(=O)(C1CC1)N(Cc1ccc(-c2noc(C(F)(F)F)n2)cc1)C1CC1 [Compound 1.2, N-cyclopropyl-N-[[4-[5-(trifluoromethyl)-1,2,4-oxadiazol-3-yl]phenyl]methyl] cyclopropanesulfonamide] |  | ≥ 80 | ≥ 80 | ≥ 80
44 to 46 | CCS(=O)(=O)N(Cc1ccc(-c2noc(C(F)(F)F)n2)cc1)OC [Compound 1.3, N-methoxy-N-[[4-[5-(trifluoromethyl)-1,2,4-oxadiazol-3-yl]phenyl]methyl] ethanesulfonamide] | ≥ 80 | ≥ 80 | ≥ 80 | ≥ 80
94 to 96 | CON(Cc1ccc(-c2noc(C(F)(F)F)n2)cc1)S(C)(=O)=O [Compound 1.5, N-methoxy-N-[[4-[5-(trifluoromethyl)-1,2,4-oxadiazol-3-yl]phenyl]methyl] methanesulfonamide] | ≥ 80 |  | ≥ 80 | 
84 to 86 | CS(=O)(=O)N(Cc1ccc(-c2noc(C(F)(F)F)n2)cc1)C1CC1 [Compound 1.8, N-cyclopropyl-N-[[4-[5-(trifluoromethyl)-1,2,4-oxadiazol-3-yl]phenyl]methyl] methanesulfonamide] | ≥ 80 | ≥ 80 | ≥ 80 | ≥ 80
102 to 105 | CN(Cc1ccc(-c2noc(C(F)(F)F)n2)cc1)S(=O)(=O)C1CC1 [Compound 1.10, N-methyl-N-[[4-[5-(trifluoromethyl)-1,2,4-oxadiazol-3-yl]phenyl]methyl] cyclopropanesulfonamide] | ≥ 80 | ≥ 80 | ≥ 80 | ≥ 80
103 to 105 | CN(Cc1ccc(-c2noc(C(F)(F)F)n2)cc1)S(C)(=O)=O [Compound 1.11, N-methyl-N-[[4-[5-(trifluoromethyl)-1,2,4-oxadiazol-3-yl]phenyl]methyl] methanesulfonamide] | ≥ 80 | ≥ 80 | ≥ 80 | ≥ 80
77 to 79 | CN(C)S(=O)(=O)N(C)Cc1ccc(-c2noc(C(F)(F)F)n2)cc1 [Compound 1.12, N-(dimethylsulfamoyl)-N-methyl-1-[4-[5-(trifluoromethyl)-1,2,4-oxadiazol-3-yl]phenyl] methanamine] | ≥ 80 | ≥ 80 | ≥ 80 | ≥ 80
85 to 88 | CCS(=O)(=O)N(C)Cc1ccc(-c2noc(C(F)(F)F)n2)cc1 [Compound 1.13, N-methyl-N-[[4-[5-(trifluoromethyl)-1,2,4-oxadiazol-3-yl]phenyl]methyl] ethanesulfonamide] | ≥ 80 | ≥ 80 | ≥ 80 | ≥ 80
118 to 120 | CN(Cc1ccc(-c2noc(C(F)(F)F)n2)cc1)S(=O)(=O)N1CCOCC1 [Compound 1.15, N-methyl-N-[[4-[5-(trifluoromethyl)-1,2,4-oxadiazol-3-yl]phenyl]methyl] morpholine-4-sulfonamide] | ≥ 80 | ≥ 80 | ≥ 80 | ≥ 80
 | CCCNS(=O)(=O)N(C)Cc1ccc(-c2noc(C(F)(F)F)n2)cc1 [Compound 1.23, 3-[4-[[methyl (propylsulfamoyl)amino]methyl]phenyl]-5-(trifluoromethyl)-1,2,4-oxadiazole] | ≥ 80 | ≥ 80 | ≥ 80 | ≥ 80
 | CON(Cc1ccc(-c2noc(C(F)(F)F)n2)c(F)c1)S(C)(=O)=O [Compound 1.101, N-[[3-fluoro-4-[5-(trifluoromethyl)-1,2,4-oxadiazol-3-yl]phenyl]methyl]-N-methoxy-methanesulfonamide] | ≥ 80 | ≥ 80 | ≥ 80 | 
 | CCN(Cc1ccc(-c2noc(C(F)(F)F)n2)c(F)c1)S(C)(=O)=O [Compound 1.102, N-ethyl-N-[[3-fluoro-4-[5-(trifluoromethyl)-1,2,4-oxadiazol-3-yl]phenyl]methyl] methanesulfonamide] | ≥ 80 | ≥ 80 | ≥ 80 | ≥ 80
65 to 75 | CCCS(=O)(=O)Nc1ccc(-c2noc(C(F)(F)F)n2)cc1 [Compound 2.38, N-[4-[5-(trifluoromethyl)-1,2,4-oxadiazol-3-yl]phenyl]propane-1-sulfonamide] |  | ≥ 80 | ≥ 80 | 
116 to 124 | O=S(=O)(NCc1ccc(-c2noc(C(F)(F)F)n2)cc1)c1ccccc1 [Compound 3.1, N-[[4-[5-(trifluoromethyl)-1,2,4-oxadiazol-3-yl]phenyl]methyl] benzenesulfonamide] |  |  | ≥ 80 | ≥ 80
120 to 123 | O=S(=O)(NCc1ccc(-c2noc(C(F)(F)F)n2)cc1)c1ccccc1F [Compound 3.7, 2-fluoro-N-[[4-[5-(trifluoromethyl)-1,2,4-oxadiazol-3-yl]phenyl]methyl] benzenesulfonamide] |  | ≥ 80 | ≥ 80 | ≥ 80
108 to 110 | O=S(=O)(NCc1ccc(-c2noc(C(F)(F)F)n2)cc1)N1CCOCC1 [Compound 3.8, N-[[4-[5-(trifluoromethyl)-1,2,4-oxadiazol-3-yl]phenyl]methyl] morpholine-4-sulfonamide] | ≥ 80 |  | ≥ 80 | ≥ 80
130 to 140 | O=S(=O)(Nc1ccc(-c2noc(C(F)(F)F)n2)cc1)C1CC1 [Compound 3.33, N-[4-[5-(trifluoromethyl)-1,2,4-oxadiazol-3-yl]phenyl]cyclo-propanesulfonamide] |  | ≥ 80 | ≥ 80 | ≥ 80
115 to 130 | O=S(=O)(Nc1ccc(-c2noc(C(F)(F)F)n2)cc1)c1ccccc1 [Compound 3.35, N-[4-[5-(trifluoromethyl)-1,2,4-oxadiazol-3-yl]phenyl]benzene-sulfonamide] |  | ≥ 80 | ≥ 80 | ≥ 80
 | CCN(C(C)c1ccc(-c2noc(C(F)(F)F)n2)cc1)S(C)(=O)=O (stereo not drawn) [Compound 4.1, N-ethyl-N-[1-[4-[5-(trifluoromethyl)-1,2,4-oxadiazol-3-yl]phenyl]ethyl] methanesulfonamide] | ≥ 80 | ≥ 80 | ≥ 80 | ≥ 80
 | CON(C(C)Cc1ccc(-c2noc(C(F)(F)F)n2)cc1)S(C)(=O)=O (stereo not drawn) [Compound 4.2, N-methoxy-N-[1-methyl-2-[4-[5-(trifluoromethyl)-1,2,4-oxadiazol-3-yl]phenyl]ethyl] methanesulfonamide] |  | ≥ 80 | ≥ 80 | ≥ 80
